Laboratory results from patent publication US4556658A, “7-Amino-1-cyclopropyl-6,8-difluoro-1,4-di hydro-4-oxo-quinoline-3-carboxylic acids and antibacterial agents containing these compounds” (Bayer Aktiengesellschaft, priority 1983, dated 1985).
Converted amounts (≈) assume the structure as drawn. Like-named read-outs stand apart in the source and are kept apart here.

Key:
Format in all cases: cell-based
[1] = tested on: Streptococc. faecal. 9790; experiment: MIC, agar dilution test, Streptococc. faecal. 9790
Excerpt: (§1) | Denley multipoint inoculator

Pseudomonas W. = experiment: MIC, agar dilution test, Pseudomonas W.
Excerpt: as §1

Proteus mir. 8223 = experiment: MIC, agar dilution test, Proteus mir. 8223; conditions: Proteus mirabilis
Excerpt: as §1

Proteus morg. 932 = experiment: MIC, agar dilution test, Proteus morg. 932; conditions: Morganella morganii, Isosensitest medium
Excerpt: as §1

[2] = Streptococc. faecal. 9790, agar dilution, Isosensitest medium, read-out: MIC
[3] = Proteus mir. 8223, agar dilution, Isosensitest medium, read-out: MIC
[4] = Pseudomonas W., agar dilution, Isosensitest medium, read-out: MIC

Row | Structure (SMILES) | MIC [1] | MIC (Pseudomonas W.; Pseudomonas) | MIC (Proteus mir. 8223; MIR.8223) | MIC [1, 2] | MIC (Proteus mir. 8223; [3]) | MIC (Pseudomonas W.; [4]) | MIC (Proteus morg. 932)
1 | Cl.O=C(O)c1cn(C2CC2)c2c(F)c(N3CCNCC3)c(F)cc2c1=O [Example 1, 1-cyclopropyl-6,8-difluoro-7-(piperazin-1-yl)-1,4-dihydro-4-oxoquinoline-3-carboxylic acid hydrochloride] | 250 µg/mL | 60 µg/mL | 2000 µg/mL |  |  |  | 
2 | CN1CCN(c2c(F)cc3c(=O)c(C(=O)O)cn(C4CC4)c3c2F)CC1.Cl [Example 2, 1-cyclopropyl-6,8-difluoro-7-(4-methylpiperazin-1-yl)-1,4-dihydro-4-oxoquinoline-3-carboxylic acid hydrochloride] |  |  |  | 500 µg/mL | 2000 µg/mL |  | 
3 | CC1CN(c2c(F)cc3c(=O)c(C(=O)O)cn(C4CC4)c3c2F)CCN1 (centres unmarked) [Example 3] |  |  |  | 500 µg/mL (≈ 1380 µM) | 4000 µg/mL (≈ 11000 µM) | 500 µg/mL (≈ 1380 µM) | 
4 | CCC1CN(c2c(F)cc3c(=O)c(C(=O)O)cn(C4CC4)c3c2F)CCN1 (centres unmarked) [Example 4] |  |  |  | 500 µg/mL (≈ 1320 µM) | 8000 µg/mL (≈ 21200 µM) | 1000 µg/mL (≈ 2650 µM) | 
5 | CC1CN(c2c(F)cc3c(=O)c(C(=O)O)cn(C4CC4)c3c2F)CC(C)N1 (centres unmarked) [Example 5] |  |  |  | 500 µg/mL (≈ 1320 µM) | 4000 µg/mL (≈ 10600 µM) | 1000 µg/mL (≈ 2650 µM) | 
6 | O=C(O)c1cn(C2CC2)c2c(F)c(N3CCN(CCO)CC3)c(F)cc2c1=O [Example 6] |  |  |  | 500 µg/mL (≈ 1270 µM) | 4000 µg/mL (≈ 10200 µM) | 1000 µg/mL (≈ 2540 µM) | 
7 | O=C(O)c1cn(C2CC2)c2c(F)c(N3CCOCC3)c(F)cc2c1=O [Example 7, 1-cyclopropyl-6,8-difluoro-7-(morpholin-4-yl)-1,4-dihydro-4-oxoquinoline-3-carboxylic acid] |  |  |  | 500 µg/mL (≈ 1430 µM) | 8000 µg/mL (≈ 22800 µM) | 1000 µg/mL (≈ 2850 µM) | 60 µg/mL (≈ 171 µM)
8 | O=C(O)c1cn(C2CC2)c2c(F)c(N3CCC(O)CC3)c(F)cc2c1=O [Example 8] |  |  |  |  | 4000 µg/mL (≈ 11000 µM) | 1000 µg/mL (≈ 2740 µM) | 30 µg/mL (≈ 82.3 µM)
9 | CC1CN(c2c(F)cc3c(=O)c(C(=O)O)cn(C4CC4)c3c2F)CC(C)O1 (centres unmarked) [Example 10] |  |  |  | 250 µg/mL (≈ 661 µM) | 8000 µg/mL (≈ 21100 µM) | 4000 µg/mL (≈ 10600 µM) | 1000 µg/mL (≈ 2640 µM)
10 | O=C(O)c1cn(C2CC2)c2c(F)c(N3CCCC3)c(F)cc2c1=O [Example 11] |  |  |  | 500 µg/mL (≈ 1500 µM) | 8000 µg/mL (≈ 23900 µM) | 4000 µg/mL (≈ 12000 µM) | 500 µg/mL (≈ 1500 µM)
11 | CC(C)N1CCN(c2c(F)cc3c(=O)c(C(=O)O)cn(C4CC4)c3c2F)CC1.I [Example 12, 1-cyclopropyl-6,8-difluoro-7-(4-isopropylpiperazin-1-yl)-1,4-dihydro-4-oxoquinoline-3-carboxylic acid hydriodide] |  |  |  | 2000 µg/mL | 16000 µg/mL | 8000 µg/mL | 60 µg/mL
12 | CCN1CCN(c2c(F)cc3c(=O)c(C(=O)O)cn(C4CC4)c3c2F)CC1 [Example 13] |  |  |  | 1000 µg/mL (≈ 2650 µM) | 4000 µg/mL (≈ 10600 µM) | 500 µg/mL (≈ 1320 µM) | 
13 | CCN1CCN(c2c(F)cc3c(=O)c(C(=O)O)cn(C4CC4)c3c2F)CC1C (centres unmarked) [Example 14] |  |  |  | 1000 µg/mL (≈ 2550 µM) | 16000 µg/mL (≈ 40900 µM) | 4000 µg/mL (≈ 10200 µM) | 30 µg/mL (≈ 76.6 µM)
14 | O=C(O)c1cn(C2CC2)c2c(F)c(N3CCN(CC4CC4)CC3)c(F)cc2c1=O [Example 15, 1-cyclopropyl-7-(4-cyclopropylmethylpiperazin-1-yl)-6,8-difluoro-1,4-dihydro-4-oxoquinoline-3-carboxylic acid] |  |  |  | 2000 µg/mL (≈ 4960 µM) | 8000 µg/mL (≈ 19800 µM) | 8000 µg/mL (≈ 19800 µM) | 60 µg/mL (≈ 149 µM)
15 | CC(=O)CCN1CCN(c2c(F)cc3c(=O)c(C(=O)O)cn(C4CC4)c3c2F)CC1 [Example 28, 1-cyclopropyl-6,8-difluoro-1,4-dihydro-4-oxo-7-[4-(3-oxobutyl)-piperazin-1-yl]-quinoline-3-carboxylic acid] |  |  |  | 500 µg/mL (≈ 1190 µM) | 4000 µg/mL (≈ 9540 µM) | 250 µg/mL (≈ 596 µM) | 
